Assays:
[1] = test system: OVA-induced allergic airway inflammation; assay: Inflammatory cell infiltrate in lung tissue, OVA model, oral dapansutrile in food; format: in vivo; details: 7.5 g/kg in food, treated vs asthmatic mice, p<0.05
Procedure: The experimental protocols of the mouse model were the same as those described in Example 1, except dapansutrile was administered orally by food. The already-sensitized mice were fed ad libidum with food pellets containing 7.5 g/kg dapansutrile starting on day 22 for one week; the first aerosol challenge was on day 26. Mice typically consume about 4 g of food per day, resulting in an approximate daily dose of 0 mg/kg/day for control groups and 1,000 mg/kg/day for the treatment groups. […] OVA-sensitized, OVA-challenged asthmatic controls (asthmatic) were fed with control food pellets without dapansutrile. […] The label on the y-axis reads “volume of inflammatory cell infiltrate per basal membrane area (μm^3/μm^2)”. The inflammatory cells were counted within a specific distance around the airways using a microscope with the computer assisted stereological toolbox (CAST) system. These counts were set in ratio to the basal membrane to normalize within each microscopic slide to avoid slide-dependent differences.

[2] = test system: IFN-γ, TNFα, IL-1β, IL-4, IL-5, IL-6, IL-10, IL-13, and IL17A; assay: Cytometric bead array of cytokines in BALF of Example 1; format: in vivo, C57BL/6j mice; details: 60 mg/kg i.p., treated vs asthmatic mice
Source text: Cytometric bead arrays were used as a method to assess the concentration of cytokines of IFN-γ, TNFα, IL-1β, IL-4, IL-5, IL-6, IL-10, IL-13, and IL17A) in the BALF of Example 1. The beads in this array were coated with antibodies specific against a variety of cytokines, some relevant and known to be affected by NLRP3 signaling.

In the case of CS(=O)(=O)CCC#N [dapansutrile, 3-methanesulfonylpropionitrile], the “number of inflammatory cells in lung tissue (volume of inflammatory cell infiltrate per basal membrane area)” value [1] is reported as “significantly lower”, the “concentrations of all measured cytokines in BALF” value [2] is reported as “some reduction” and the “IL-1β concentration in BALF” value ([2]; p<0.001) is reported as “statistically significant reduction”. The “IL-6 concentration in BALF” value ([2]; p<0.05) was “statistically significant reduction”.

Reference: patent US20220087969A1, “METHOD FOR TREATING ASTHMA” (Olatec Therapeutics LLC, priority 2019, published 2022)
